Assay results published in ChEMBL document CHEMBL1201862, “PubChem BioAssay data set” (2004).
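Growth conditions: 96-well plates. Treatment: test compound, 48 hours, 5 concentrations. Analysis: linear interpolation between bracketing concentrations; unreached endpoints set to highest concentration. Here, GI50 denotes the concentration required for 50% inhibition of growth.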 The source made the active and inactive calls. Cut-off read from the data, not from the text of the source: active = GI50 up to about 1.1 µM and inactive = higher.

What was measured:
Assay in all cases: growth of human tumour cells (NCI), 48 h
EKVX = tested on: EKVX
OVCAR-3 = tested on: OVCAR-3
CAKI-1 = tested on: CAKI-1
UACC-257 = tested on: UACC-257
SF-268 = tested on: SF-268
HCT-15 = tested on: HCT-15
M14 = tested on: M14
HCC 2998 = tested on: HCC 2998
KM-20L2 = tested on: KM-20L2
NCI-H23 = tested on: NCI-H23
SK-MEL-28 = tested on: SK-MEL-28
NCI-H226 = tested on: NCI-H226
HL-60 = tested on: HL-60
KM12 = tested on: KM12
HOP-92 = tested on: HOP-92
786-0 = tested on: 786-0
K562 = tested on: K562
SNB-19 = tested on: SNB-19
Hs-578T = tested on: Hs-578T
BT-549 = tested on: BT-549

Measured: GI50

CC(C)C(=O)Nc1nc2c(ncn2C2OC(CO)C(O)C2O)c(=O)[nH]1 (stereo not drawn)
inactive: EKVX > 100 µM | OVCAR-3 > 100 µM | CAKI-1 > 100 µM | UACC-257 > 100 µM | SF-268 > 100 µM | M14 > 100 µM | HCC 2998 > 100 µM | KM-20L2 > 100 µM | NCI-H23 > 100 µM | SK-MEL-28 > 100 µM | NCI-H226 > 100 µM | HL-60 > 100 µM | KM12 > 100 µM | HOP-92 > 100 µM | 786-0 > 100 µM | K562 > 100 µM
> 100 µM: HCT-15

O=C1O[C@@H](c2ccccc2)C[C@H]1CN1CCOCC1
> 100 µM: HCT-15
inactive: EKVX > 100 µM | OVCAR-3 > 100 µM | CAKI-1 20.4 µM | UACC-257 > 100 µM | SF-268 > 100 µM | M14 > 100 µM | HCC 2998 > 100 µM | KM-20L2 > 100 µM | NCI-H23 17 µM | SK-MEL-28 > 100 µM | NCI-H226 43.6 µM | HL-60 24.6 µM | KM12 89.5 µM | HOP-92 > 100 µM | 786-0 28.2 µM | K562 40.7 µM

CC(C)(O)[C@@H]1CCC(C)([C@H]2[C@@H](O)CC3(C)C4CC(OC5OC(CO)C(O)C(O)C5O)C5C(C)(C)[C@@H](OC6OCC(O)C(O)C6O)CC[C@@]56C[C@@]46CC[C@]23C)O1 (stereo partly drawn)
> 100 µM: HCT-15
inactive: EKVX > 100 µM | OVCAR-3 > 100 µM | SNB-19 > 100 µM | UACC-257 > 100 µM | SF-268 > 100 µM | M14 > 100 µM | HCC 2998 > 100 µM | KM-20L2 > 100 µM | NCI-H23 > 100 µM | SK-MEL-28 > 100 µM | NCI-H226 > 100 µM | HL-60 > 100 µM | KM12 > 100 µM | HOP-92 > 100 µM | 786-0 > 100 µM | K562 > 100 µM

O=Cc1ccc2c(c1-c1c(C=O)ccc3c1OCO3)OCO2
> 100 µM: HCT-15
inactive: EKVX > 100 µM | OVCAR-3 > 100 µM | CAKI-1 > 100 µM | SNB-19 > 100 µM | UACC-257 > 100 µM | SF-268 > 100 µM | M14 > 100 µM | HCC 2998 > 100 µM | KM-20L2 > 100 µM | NCI-H23 > 100 µM | SK-MEL-28 > 100 µM | NCI-H226 > 100 µM | HL-60 > 100 µM | KM12 > 100 µM | 786-0 > 100 µM | K562 > 100 µM

C#CC1(O)c2ccccc2C(=O)c2ccccc21
inactive: EKVX > 100 µM | CAKI-1 > 100 µM | SNB-19 > 100 µM | UACC-257 > 100 µM | SF-268 > 100 µM | HCC 2998 > 100 µM | KM-20L2 > 100 µM | NCI-H23 > 100 µM | SK-MEL-28 > 100 µM | NCI-H226 > 100 µM | HL-60 > 100 µM | KM12 > 100 µM | HOP-92 21.6 µM | 786-0 > 100 µM | K562 > 100 µM

COCC(OC)C(CC=C(C#N)C#N)OC (stereo not drawn)
inactive: EKVX > 100 µM | OVCAR-3 > 100 µM | CAKI-1 > 100 µM | SNB-19 > 100 µM | UACC-257 > 100 µM | SF-268 > 100 µM | M14 > 100 µM | HCC 2998 > 100 µM | KM-20L2 > 100 µM | NCI-H23 > 100 µM | SK-MEL-28 > 100 µM | HL-60 > 100 µM | KM12 > 100 µM | HOP-92 > 100 µM | 786-0 > 100 µM | K562 > 100 µM
> 100 µM: HCT-15

CCOC(=O)C1(C(=O)OCC)OC(=O)NC2=C1CCCC2
inactive: EKVX > 100 µM | OVCAR-3 > 100 µM | SNB-19 > 100 µM | UACC-257 > 100 µM | SF-268 > 100 µM | HCC 2998 > 100 µM | KM-20L2 > 100 µM | NCI-H23 > 100 µM | SK-MEL-28 > 100 µM | HL-60 > 100 µM | KM12 > 100 µM | HOP-92 > 100 µM | 786-0 > 100 µM | K562 > 100 µM

NC(=O)c1ccc2c(c1)S(=O)(=O)c1ccccc1C2=O
inactive: Hs-578T 58.6 µM | EKVX 10 µM | OVCAR-3 > 100 µM | CAKI-1 > 100 µM | SNB-19 > 100 µM | UACC-257 > 100 µM | SF-268 35.9 µM | M14 > 100 µM | BT-549 > 100 µM | HCC 2998 > 100 µM | NCI-H23 > 100 µM | SK-MEL-28 > 100 µM | NCI-H226 > 100 µM | HL-60 > 100 µM | KM12 > 100 µM | HOP-92 63.2 µM | 786-0 64.6 µM | K562 > 100 µM
> 100 µM: HCT-15
